Laboratory results as given in the supplement of paper PMC10307832.

Tests used:
Test in all cases: relative viability (nuclei count vs DMSO), 5 days (fraction); higher = more cells survive
[1] = compound: CC1=CC(=CC=C1)NC2=NC(=CS2)C3=CC=NC=C3 + O=C(CCCCCCC(=O)Nc1ccccc1)NO [Vorinostat] (partner 1 µM)
In short: (§1)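 After 5 days of treatment, lung cancer cells in 1536-well plates were fixed and stained in a single step (final 0.05% Triton X-100, 1% formaldehyde, 1 ug/ml Hoechst) and their nuclei counted on 4× images. Treatment had been applied by pin tool the day after seeding as one drug alone or as a fixed anchor-drug dose with five library-drug doses (not always all listed) in √10 steps. Relative viability is the nuclei count of treated wells divided by that of vehicle wells, and values are medians of duplicate plates.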

Masitinib + Luminespib = compound: Cc1ccc(NC(=O)c2ccc(CN3CCN(C)CC3)cc2)cc1Nc1nc(-c2cccnc2)cs1 [Masitinib] + CCNC(=O)c1noc(-c2cc(C(C)C)c(O)cc2O)c1-c1ccc(CN2CCOCC2)cc1 [Luminespib] (partner 0.01 µM)
In short: as §1

Masitinib + Olaparib = compound: Cc1ccc(NC(=O)c2ccc(CN3CCN(C)CC3)cc2)cc1Nc1nc(-c2cccnc2)cs1 [Masitinib] + O=C(c1cc(Cc2n[nH]c(=O)c3ccccc23)ccc1F)N1CCN(C(=O)C2CC2)CC1 [Olaparib] (partner 8 µM)
In short: as §1

Masitinib + Tozasertib = compound: Cc1ccc(NC(=O)c2ccc(CN3CCN(C)CC3)cc2)cc1Nc1nc(-c2cccnc2)cs1 [Masitinib] + Cc1cc(Nc2cc(N3CCN(C)CC3)nc(Sc3ccc(NC(=O)C4CC4)cc3)n2)n[nH]1 [Tozasertib] (partner 0.1 µM)
In short: as §1

| Cell Line | relative viability ([1]; first compound 0.08 µM) | relative viability ([1]; first compound 0.253 µM) | relative viability ([1]; first compound 0.8 µM) | relative viability ([1]; first compound 2.53 µM) | relative viability ([1]; first compound 8 µM) | relative viability (Masitinib + Luminespib; first compound 0.01 µM) | relative viability (Masitinib + Luminespib; first compound 0.1 µM) | relative viability (Masitinib + Luminespib; first compound 0.3162 µM) | relative viability (Masitinib + Luminespib; first compound 1 µM) | relative viability (Masitinib + Olaparib; first compound 0.01 µM) | relative viability (Masitinib + Olaparib; first compound 0.03162 µM) | relative viability (Masitinib + Olaparib; first compound 0.1 µM) | relative viability (Masitinib + Olaparib; first compound 0.3162 µM) | relative viability (Masitinib + Olaparib; first compound 1 µM) | relative viability (Masitinib + Tozasertib; first compound 0.01 µM) | relative viability (Masitinib + Tozasertib; first compound 0.03162 µM) | relative viability (Masitinib + Tozasertib; first compound 0.1 µM) | relative viability (Masitinib + Tozasertib; first compound 0.3162 µM) | relative viability (Masitinib + Tozasertib; first compound 1 µM) | relative viability (Masitinib + Luminespib; first compound 0.03162 µM) |
| --- | --- | --- | --- | --- | --- | --- | --- | --- | --- | --- | --- | --- | --- | --- | --- | --- | --- | --- | --- | --- |
| BEN | 0.566 | 0.572 | 0.503 | 0.536 | 0.595 | 0.436 | 0.631 | 0.378 | 0.37 | 1.21 | 1.1 | 1.4 | 1.23 | 1.08 | 0.481 | 0.506 | 0.561 | 0.483 | 0.481 |  |
| EMC-BAC-2 | 0.367 |  | 0.579 | 0.343 | 0.425 | 1.01 | 1.15 | 1.13 | 1.16 | 0.457 | 0.484 | 0.481 | 0.416 | 0.456 | 0.273 | 0.271 | 0.287 | 0.264 | 0.261 | 1.06 |
| LXF-289 | 0.746 | 0.808 | 0.801 | 0.679 | 0.718 | 0.581 | 0.775 | 0.746 | 0.541 | 0.948 | 0.99 | 1.06 | 1.04 | 1.02 | 0.214 | 0.174 | 0.2 | 0.232 | 0.177 | 0.796 |
| ABC-1 | 0.944 |  | 1.44 | 0.963 | 0.377 | 0.397 | 0.743 | 0.484 | 0.429 | 0.727 | 1.39 | 0.844 | 0.67 | 0.78 | 0.223 | 0.163 | 0.168 | 0.226 | 0.18 | 0.692 |
| NCI-H358 | 0.633 | 0.653 | 0.518 | 0.662 | 0.624 | 0.21 | 0.37 | 0.342 | 0.186 | 0.549 | 0.621 | 0.603 | 0.604 | 0.607 | 0.118 | 0.0987 | 0.114 | 0.113 | 0.104 | 0.299 |
| NCI-H1355 | 0.521 | 0.458 | 0.429 | 0.403 | 0.469 | 0.643 | 0.766 | 0.623 | 0.738 | 0.727 | 0.665 | 0.754 | 0.521 | 0.761 | 0.534 | 0.469 | 0.561 | 0.384 | 0.394 | 0.564 |
| EBC-1 |  |  |  |  |  |  |  |  |  | 0.679 | 0.673 | 0.814 | 0.713 | 0.615 |  |  |  |  |  |  |
| NCI-H2405 | 0.874 | 0.613 | 0.892 |  | 0.839 | 0.606 | 0.692 | 0.521 | 0.571 | 0.78 | 0.816 | 0.873 | 0.722 | 0.827 | 0.759 | 0.729 | 0.725 | 0.631 | 0.635 | 0.64 |
| NCI-H2009 | 0.624 | 0.664 | 0.593 | 0.642 | 0.7 | 0.969 | 1.03 | 1 | 1.06 | 0.733 | 0.546 | 0.818 | 0.702 | 0.635 | 0.762 | 0.71 | 0.744 | 0.817 | 0.658 | 0.938 |
| NCI-H441 | 0.705 | 0.955 | 0.842 | 0.746 | 0.76 | 0.288 | 0.349 | 0.407 | 0.318 | 0.53 | 0.403 | 0.602 | 0.586 | 0.553 | 0.67 | 0.571 | 0.637 | 0.7 | 0.473 | 0.402 |
| PC-14 | 0.84 | 0.674 | 0.715 | 0.867 | 0.666 | 0.15 | 0.246 | 0.151 | 0.196 | 0.277 | 0.256 | 0.249 | 0.232 | 0.204 | 0.5 | 0.563 | 0.512 | 0.482 | 0.478 | 0.222 |
| HARA | 0.492 | 0.523 | 0.501 | 0.391 | 0.302 |  | 0.44 | 0.682 | 0.731 | 0.749 | 0.507 | 1.15 |  | 1.13 |  | 0.352 | 0.126 | 0.0979 | 0.104 | 0.609 |
| NCI-H2126 | 0.579 | 0.717 | 0.711 | 0.735 | 0.74 | 0.888 | 0.951 | 0.89 | 0.794 | 0.916 | 0.965 | 1 | 0.992 | 0.991 | 0.938 | 0.819 | 0.926 | 0.627 | 0.828 | 1 |
| NCI-H1563 |  |  |  |  |  | 0.509 | 0.524 | 0.532 | 0.505 |  |  |  |  |  |  |  |  |  |  | 0.537 |
| NCI-H2342 | 0.749 | 0.753 | 0.721 | 0.716 | 0.745 | 0.775 | 0.707 | 0.727 | 0.791 | 0.447 | 0.485 | 0.425 | 0.44 | 0.36 | 0.464 | 0.51 | 0.523 | 0.514 | 0.469 | 0.79 |
| A549 |  |  |  |  |  |  |  |  |  | 0.363 | 0.184 | 0.338 | 0.301 | 0.325 |  |  |  |  |  |  |
| NCI-H1299 |  |  |  |  |  |  |  |  |  | 0.936 | 0.988 | 0.993 | 1.06 | 0.846 |  |  |  |  |  |  |
| NCI-H1792 |  |  |  |  |  | 0.341 | 0.41 | 0.397 | 0.402 | 0.528 | 0.257 | 0.303 | 0.377 | 0.396 |  |  |  |  |  | 0.206 |
| HCC-78 | 0.513 | 0.468 | 0.477 | 0.41 | 0.481 |  |  |  |  | 0.798 | 0.855 | 0.871 | 0.712 | 0.824 | 0.338 | 0.446 | 0.423 | 0.447 | 0.454 |  |
| IA-LM | 0.884 | 0.954 | 0.942 |  | 0.78 |  |  |  |  | 0.896 | 0.875 | 0.929 | 0.796 | 0.836 |  |  |  |  |  |  |
| NCI-H1648 | 0.279 | 0.455 | 0.548 | 0.422 | 0.349 |  |  |  |  | 1.04 | 0.78 | 1.08 |  | 0.96 | 0.477 |  | 0.452 | 0.397 | 0.431 |  |
